From patent US9487561B2, “Biologically active complex and its preparation” (HAMLET PHARMA AB, priority 2010, dated 2016)
“Also recorded” adds a separate entry of the source.

B1: HAMLET (protein, UniProt P00709 20-142, looked up)
Alpha-lactalbumin: KQFTKCELSQLLKDIDGYGGIALPELICTMFHTSGYDTQAIVENNESTEYGLFQISNKLWCKSSQVPQSRNICDISCDKFLDDDITDDIMCAKKILDIKGIDYWLAHKALCTEKLEQWLCEKL
modifications: oleic acid complex

Experiments:
Format in all cases: cell-based, human
[1] = system: A549 lung carcinoma cells; assay: cell death assay (trypan blue exclusion, ATP levels); conditions: for effect of channel inhibitor on HAMLET-induced cell death: 30 minutes pretreatment, HAMLET three hours; for tumoricidal effect (trypan blue exclusion, ATP): Example 2, 3 hours, molar concentrations based on stoichiometry in HAMLET, dose response
Protocol: Cells were detached from cell culture flasks with versen (0.2 g EDTA in 200 ml H2O and 800 ml PBS), washed with PBS and resuspended in serum-free RPMI-1640. HAMLET dissolved in PBS was incubated with cells (0.5×10^6/ml for A549, A498 and HeLa cells; 1×10^6/ml for Jurkat) at 37° C. FCS was added after 1 hour. Cell death was quantified by trypan blue exclusion (Chroma Gesellschaft Schmid & Co) or by measuring ATP levels (ATPlite Kit, PerkinElmer, Infinite 200, Tecan). Light images were captured using the HOLOMONITOR™ M2 digital holographic microscope (Phase Holographic Imaging AB, Lund, Sweden).
For studies with inhibitors, cells were pretreated for 30 minutes. Inhibitors used were Gadolinium chloride (GdCl3, 100 μM), Barium chloride (BaCl2, 1 mM), Ruthenium red (30 μM), tetrandrine (10 μM) and amiloride (1 mM), all from Sigma Aldrich. For p38 inhibition, SB202190 (20 μM, Sigma Aldrich) or BIRB796 (10 μM, Axon Medchem) dissolved in DMSO was used. The wells were washed twice with PBS and new medium with inhibitor was added. For RNA interference, FlexiTube siRNA Premixes against MAPK11 (SI00606053), MAPK14 (SI00300769) and All Star Negative Control siRNA (SI03650318) from Qiagen was used. A549 forward was transfected using 25 nM final siRNA concentration in 24-well plate. After 48 hours, knockdown was examined by Western blot (anti-p38, 1:1000, Cell Signaling) and RT-PCR (MAPK14, QT00079345, QIAGEN).
To examine if functional ion channels are important for the tumoricidal activity of HAMLET, A549 lung carcinoma cells in suspension were pretreated with the channel inhibitors for 30 minutes and exposed to increasing concentrations of HAMLET for three hours.
A549 cells were seeded to a density of 0.8-1.0×10^6 cells/well in RPMI without FCS. Different volumes of HAMLET/oleate and oleic acid solutions were added. The cells were incubated for 1 hour at 37° C. 5% CO2 for 1 hour before 50 μl of FCS (5% final concentration) were added to the wells. The cells were then further incubated for additional 2 hours before the viability were determined by trypan blue exclusion and ATP measurements.

[2] = system: eIF2α, ATF6, XBP1, CHOP in A549 tumor cells; assay: ER stress response (Western blot, XBP1 splicing PCR, RT-PCR); conditions: for effect of ion channel inhibitor on HAMLET-induced eIF2α phosphorylation (ER stress): lung carcinoma cells, 30 minutes pretreatment, HAMLET 21 and 35 μM, 1 hour; for XBP1 splicing: PCR
Protocol: RNA was prepared with the RNeasy Mini Kit (QIAGEN, Hilden, Germany) and treated with DNAse I (QIAGEN). cDNA was synthesized using the Superscript III first strand RT-PCR system (Invitrogen). PCR of spliced and un-spliced XBP1 was as described (Yoshida et al., 2001, Cell 107: 881-891). Real-time PCR was performed on a Rotorgene 2000 instrument (Corbett Life Science, Sydney, Australia) using TaqMan Gene Expression Assays (Applied BioSystems) CHOP/DDIT3 (Hs01090850), IL6 (Hs00985639), IL8 (Hs00174103) and TNFα (Hs00174128). GAPDH (Hs99999905_m1) was used for normalization.
(§1) Equal volumes of lysates were separated by SDS-PAGE on 4-12% Bis-Tris gels (Invitrogen) and blotted onto PVDF membranes. For other Western blots, 200,000 cells were allowed to adhere overnight in a 6-well plate. After HAMLET treatment the cells were washed with PBS and lysed in M-PER lysis buffer (Pierce) containing Complete protease inhibitor cocktail and PhosSTOP phosphatase inhibitor cocktail (both from Roche). The detached cells were collected by centrifugation. The lysates were cleared by centrifugation and protein concentrations were measured using the DC Protein Assay (Bio-Rad Laboratories, Hercules, Calif.). Equal amounts of protein were separated by SDS-PAGE on 4-12% Bis-Tris gels (Invitrogen) and blotted onto PVDF membranes (GE Healthcare). Membranes were saturated with BSA (GAPDH) or nonfat dry milk (phospho-p38, p38, phospho-ERK1/2, ERK1/2) and incubated with anti-p38, anti-phospho-p38, anti-ERK1/2, anti-phospho-(Thr202/Tyr204)-p44/42 (all 1:500-1000, Cell Signaling Technology), anti-ATF6 (1:1000, IMG-273, Imgenex), anti-phospho-eIF2α (Ser51), (1:500, Cell Signaling Technology) or anti-GAPDH (1:3000-5000, Novus Biologicals) antibodies followed by horseradish peroxidase-conjugated anti-rabbit (1:1000, DakoCytomation, Glostrup, Denmark) or anti-mouse (1:40000-50000, Novus Biologicals) antibodies for staining. Bound antibodies were detected with ECL Plus Western Blotting Reagent (GE Healthcare, Little Chalfont, UK) and GelDoc equipment (Bio-Rad Laboratories, Hercules, Calif.). If required, membranes were stripped with Restore Western Blot Stripping Buffer (Pierce, Rockford, Ill.), blocked and reprobed with new antibodies. MAP kinase phosphorylation was analyzed on a Human Phospho-MAPK array (Proteome Profiler Array, R&D Systems) as per the manufacturer's instruction. Band and spot intensities were quantified using ImageJ (Abramoff et al., July 2004, Biophotonics International). Cytokine quantification (IL6, IL8, TNFα) was performed on an […] 1000 immunoassay system (Siemens Diagnostics).
Disturbances in ER Ca^2+ regulation can impair protein folding in the ER by inactivation of Ca^2+ dependent chaperones, such as GRP78 and calreticulin. An increase in unfolded proteins may activate a conserved series of signal-transduction events. Spanning the ER membrane, three ER stress sensors PERK, ATF6 and IRE1 are activated by an overload of unfolded proteins. Upon PERK activation, eIF2α is phosphorylated, shutting down protein translation to avoid unfolded protein overload. To examine if HAMLET disturbs the ER and triggers an unfolded protein response, we analyzed the transcription of ER stress-induced genes.

[3] = system: p38, HSP27, ERK1/2 in kidney and lung carcinoma cells; assay: MAPK phosphorylation (phospho-MAPK antibody arrays, Western blot); conditions: for effect of ion channel inhibitor on suppression of p-ERK1/2 phosphorylation by HAMLET / effect of ion channel inhibitor on HAMLET-induced p38 phosphorylation: lung carcinoma cells; for effect of ion channel inhibitor on HAMLET-induced p38 phosphorylation: 30 minutes pretreatment, HAMLET 21 and 35 μM, 1 hour; for phosphorylation of p38: Western blot
Excerpt: as §1
P38 MAPKs are activated by dual phosphorylation on conserved threonine and tyrosine residues by MKK3/6 and when phosphorylated, a wide variety of effector proteins, including MAPKAPK2 kinases, HSP27 chaperones and ATF2 and CHOP transcription factors become active (Cuenda et al., 2007, Biochimica et Biophysica Acta 1773: 1358-1375).

Molecule | effect of channel inhibitor on HAMLET-induced cell death [1] | effect of ion channel inhibitor on HAMLET-induced eIF2α phosphorylation (ER stress) [2] | effect of ion channel inhibitor on suppression of p-ERK1/2 phosphorylation by HAMLET [3] | effect of ion channel inhibitor on HAMLET-induced p38 phosphorylation [3] | tumoricidal effect (trypan blue exclusion, ATP) [1] | concentration at which tumor cells were killed, relative to concentration in HAMLET ([1]; Example 2, dose response) | tumoricidal effect at concentrations corresponding to 15× that of HAMLET (35 μM) ([1]; FIG. 7F, cell line not stated) | XBP1 splicing [2] | phosphorylation of p38 [3] | lethal response (trypan blue exclusion, ATP levels) ([1]; increasing concentrations, three hours, no inhibitors) | increase of CHOP mRNA ([2]; 3 hours) [fold] | eIF2α phosphorylation ([2]; A549 tumor cells) | ATF6 (Western blotting) ([2]; three hours of HAMLET treatment) | ERK1/2 phosphorylation ([3]; 30 minutes) | p38α and HSP27 phosphorylation ([3]; 30 minutes, phospho-MAPK antibody arrays)
[Ba+2].[Cl-].[Cl-] [BaCl2, barium chloride] | markedly reduced cell death | reduced eIF2α phosphorylation | reversed | inhibited | – | – | – | – | – | – | – | – | – | – | –
NC(N)=NC(=O)c1nc(Cl)c(N)nc1N [amiloride, 3,5-diamino-6-chloro-N-(diaminomethylene)pyrazine-2-carboxamide] | markedly reduced cell death | reduced eIF2α phosphorylation | reversed | inhibited | – | – | – | – | – | – | – | – | – | – | –
CCCCCCCC/C=C\CCCCCCCC(=O)[O-].[Na+] [oleate, sodium oleate] | – | – | – | – | tumoricidal; also recorded: stronger than that of oleic acid | three to five times higher than the concentration in HAMLET | not tumoricidal | caused splicing of XBP1 | phosphorylation of p38 | – | – | – | – | – | –
B1 | – | – | – | – | kills tumor cells more efficiently than protein free oleate or oleic acid | – | – | detected | dose- and time-dependent | rapid, dose-dependent lethal response | 30 | time- (30 minutes) and dose-dependent | increase in cleaved as well as full-length ATF6 | loss of ERK1/2 phosphorylation | phosphorylating p38α and HSP27
